According to ChEMBL document CHEMBL4028844, “Targeting the Receptor for Advanced Glycation Endproducts (RAGE): A Medicinal Chemistry Perspective” (J Med Chem, 2017):
pIC50, pKd, pKi: −log10 of the molar value.

How the values were obtained:
[1] = target: T1, Advanced glycosylation end product-specific receptor (Homo sapiens, UniProt Q15109); assay: Inhibition of amyloid beta binding to human RAGE […] expressed in HEK293 cells after 10 mins by MST assay; type: cell-based
[2] = target: T1, Advanced glycosylation end product-specific receptor; assay: Inhibition of HMGB1 binding to human RAGE domain V expressed in CHO cells; type: cell-based
[3] = target: T1, Advanced glycosylation end product-specific receptor; assay: Inhibition of […] binding to human RAGE domain V expressed in CHO cells; type: cell-based
[4] = target: T1, Advanced glycosylation end product-specific receptor; assay: Displacement of [I125]amyloid beta (1 to 40) from human RAGE domain V expressed in CHO cells; type: cell-based
[5] = target: T1, Advanced glycosylation end product-specific receptor; assay: Binding affinity to human RAGE cytoplasmic domain by tryptophan fluorescence assay
[6] = target: T1, Advanced glycosylation end product-specific receptor; assay: Binding affinity to human His-tagged RAGE domain VC1 expressed in Escherichia coli by fluorescence titration method
[7] = target: Advanced glycosylation end product-specific receptor (Rattus norvegicus, UniProt Q63495); assay: Binding affinity to Wistar rat His-tagged RAGE domain VC1 expressed in Escherichia coli by fluorescence titration method
[8] = target: T1, Advanced glycosylation end product-specific receptor; assay: Binding affinity to human C-terminal His-tagged RAGE domain V (24 to 125 residues) expressed in Escherichia coli BL21(DE3) by tryptophan fluorescence assay
[9] = target: T1, Advanced glycosylation end product-specific receptor; assay: Inhibition of […] binding to RAGE (unknown origin) by ELISA
[10] = target: T1, Advanced glycosylation end product-specific receptor; assay: Inhibition of CML binding to RAGE (unknown origin) by ELISA
[11] = target: T1, Advanced glycosylation end product-specific receptor; assay: Inhibition of amyloid beta binding to RAGE (unknown origin) by ELISA
[12] = Cytotoxicity against mouse HT22 cells assessed as cell survival at 10 uM after 18 hrs by MTT assay relative to control; type: cell-based, HT-22; conditions: read-out: Survival
[13] = target: T1, Advanced glycosylation end product-specific receptor; assay: Inhibition of amyloid beta binding to biotin-labeled human RAGE domain V at 20 uM after 60 mins by ELISA relative to cotrol

T1 sequence (Q15109 whole entry, the tested form may be a part): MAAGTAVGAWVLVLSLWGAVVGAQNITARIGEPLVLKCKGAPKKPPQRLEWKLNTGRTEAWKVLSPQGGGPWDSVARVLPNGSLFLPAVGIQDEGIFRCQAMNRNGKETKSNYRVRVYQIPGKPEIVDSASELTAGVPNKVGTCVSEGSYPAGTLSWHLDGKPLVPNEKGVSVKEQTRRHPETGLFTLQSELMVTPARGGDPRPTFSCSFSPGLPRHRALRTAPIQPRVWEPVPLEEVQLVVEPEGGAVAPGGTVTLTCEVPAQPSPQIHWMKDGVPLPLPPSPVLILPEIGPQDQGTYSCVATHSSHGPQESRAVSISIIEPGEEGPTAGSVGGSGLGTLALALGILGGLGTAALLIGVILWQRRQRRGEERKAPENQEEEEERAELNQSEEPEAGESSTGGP
Chain of Advanced glycosylation end product-specific receptor (Rattus norvegicus, UniProt Q63495) (Q63495 whole entry, the tested form may be a part): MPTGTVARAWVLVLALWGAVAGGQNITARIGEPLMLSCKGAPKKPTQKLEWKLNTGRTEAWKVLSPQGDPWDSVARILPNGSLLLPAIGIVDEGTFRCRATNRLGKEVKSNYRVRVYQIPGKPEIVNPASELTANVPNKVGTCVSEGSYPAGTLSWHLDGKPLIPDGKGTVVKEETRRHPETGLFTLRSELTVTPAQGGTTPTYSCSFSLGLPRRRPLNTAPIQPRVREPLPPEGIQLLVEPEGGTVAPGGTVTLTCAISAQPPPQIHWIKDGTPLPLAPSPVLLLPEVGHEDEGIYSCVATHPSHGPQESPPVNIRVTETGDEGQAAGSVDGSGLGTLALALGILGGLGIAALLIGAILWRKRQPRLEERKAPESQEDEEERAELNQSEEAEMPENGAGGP

Molecule `O=C1CCC[C@@H]2[C@H]3CCCN4CCC[C@@H](CN12)[C@@H]34` [MATRINE] has a pKd [1] of 1.62.

Molecule `O=C(c1ccc(Cl)cc1)N(Cc1ccccc1)C1CCCCC1` has a pKi [2] of 6.83, a pKi [3] of 6.64 and a pKi [4] of 7.60.

`COC(=O)c1cc(O)c(O)cc1NC(=O)C1Oc2ccccc2OC1C` (stereo unspecified) gave a pKd [5] of 8.70.

In the case of `COc1cc(SC)ccc1C(=O)Nc1cccc(C)n1`, the pKd [5] was 8.22.

In the case of `O=C(O)c1cccnc1C(=O)O` [QUINOLINIC ACID], the pKd [6] was 7.37 and the pKd [7] was 7.37.

`CC1NC(NCCC[C@H](N)C(=O)O)=NC1=O` (stereo partly specified) gave a pKd [8] of 7.40 to 7.52.

Work on `Cc1nc2ccccc2n1CC(O)Cn1c2ccccc2c2ccccc21` (stereo unspecified) yielded a pKd [5] of 9.00.

In the case of `CCCCOc1cc(OCCCN(CC)CC)ccc1NC(=O)C(CC1CCN(Cc2ccccc2)CC1)NC(=O)OCC1c2ccccc2-c2ccccc21` (stereo unspecified), the pIC50 [9] was > 6.30, the pIC50 [10] was > 6.30 and the pIC50 [11] was > 6.30.

For `CCCCn1c([C@@H](Cc2ccc(OCCc3ccc(Cl)cc3)cc2)NC(=O)OC(C)(C)C)nc2cc(OCCCN(CC)CC)ccc21`, the pIC50 [9] was > 6.30, the pIC50 [10] was > 5.40 and the pIC50 [11] was > 6.30.

`Cc1c(Cl)cccc1NC(=O)CNC(=O)c1ccccc1F` showed a pKd [5] of 7.49.

With `CCCCOc1cc(OCCCN(CC)CC)ccc1NC(=O)c1cc(-c2ccc(Oc3ccc(F)cc3)cc2)nn1C` the viability at 18 h, 10 µM [12] was 10.3%.

With `CCN(CC)CCOc1ccc(OC)cc1NC(=O)c1nc(-c2ccc(F)cc2)cc(-c2ccc(F)cc2)n1` the inhibition [13] was > 4% and the viability at 18 h, 10 µM [12] was 100%.

Work on `CCN(CC)CCOc1cccc(Nc2nc(-c3ccc(Cl)cc3)cc(-c3ccc(Cl)cc3)n2)c1` yielded a viability at 18 h, 10 µM [12] of 37.3%.
